Laboratory results reported in patent US10881642B2, “Autophagy enhancer and use thereof” (Industry-Academic Cooperation Foundation, Yonsei University, priority 2016, dated 2021).
Peptide text beside a SMILES is read from it. * marks the point of attachment. βNA = c1ccc2cc(N*)ccc2c1

Test system: HeLa cells
Assay: GCaMP3-ML1 lysosomal Ca2+ release imaging
Format: cell-based
Details: GPN 200 μM; ionomycin 1 μM
Experimental: HeLa cells were transfected with perilysosomal GCaMP3-ML1 calcium probe, and Ratiometric image (474 and 410 nm excitation) was obtained.
GCaMP3 Ca2+ Imaging. HeLa cells were grown on 15 mm coverslips and transfected with plasmid encoding the perilysosomal-localized ML1-GCaMP3 calcium probes.

SMILES	lysosomal Ca2+ release
C[C@H](CCC(=O)O)C[C@H](C)C[C@H](C)C(=O)/C=C(\O)[C@H](C)C[C@H](C)C/C=C/[C@@H](C)[C@@H](O)[C@@H](C)[C@@H](O)C[C@@H]1CC[C@@](C)([C@H]2CC[C@@](C)([C@@H](C)O)O2)O1 [ionomycin]	induced lysosomal Ca2+ release
NCC(=O)N[C@@H](Cc1ccccc1)C(=O)Nc1ccc2ccccc2c1 [GPN] (H-Gly-Phe-βNA)	induced lysosomal Ca2+ release
